{"source": "paper PMC4441592", "about": "(Neuron, 2015)", "key": {"[1]": {"molecular_target": "KORD (D138N hKOR) (Homo sapiens, UniProt P41145, D138N)", "sequence (P41145 whole entry D138N)": "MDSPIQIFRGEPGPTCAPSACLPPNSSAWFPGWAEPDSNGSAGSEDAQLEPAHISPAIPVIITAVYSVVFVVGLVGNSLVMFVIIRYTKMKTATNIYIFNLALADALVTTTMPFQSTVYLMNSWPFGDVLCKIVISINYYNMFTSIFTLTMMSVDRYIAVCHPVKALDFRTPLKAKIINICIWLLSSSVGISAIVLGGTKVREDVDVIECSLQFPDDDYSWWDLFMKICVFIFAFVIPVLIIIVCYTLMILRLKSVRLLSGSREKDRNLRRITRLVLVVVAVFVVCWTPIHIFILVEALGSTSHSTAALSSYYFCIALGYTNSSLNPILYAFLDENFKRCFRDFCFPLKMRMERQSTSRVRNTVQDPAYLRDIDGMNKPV", "assay": "cell-based"}, "[2]": {"test_system": "mice", "conditions": "mouse, in vivo"}, "[3]": {"test_system": "VGAT-ires-Cre mice, VTA/SN^VGAT neurons", "assay": "Locomotor activity", "format": "in vivo", "conditions": "mice expressing both KORD and hM3Dq in VTA/SN^VGAT neurons; 10.0 mg/kg; different testing sessions"}, "[4]": {"test_system": "CNS molecular targets", "assay": "NIMH Psychoactive Drug Screening Program profiling", "conditions": "NIMH PDSP; except low KOR binding affinity"}, "[5]": {"molecular_target": "E297A mutant (Homo sapiens, UniProt P41145, E297A)", "sequence (P41145 whole entry E297A)": "as the sequence (P41145 whole entry D138N) above, with N138D, E297A counted along it", "assay": "Affinity and agonist potency at E297A KOR mutant", "format": "cell-based", "conditions": "E297A mutant alone"}, "[6]": {"molecular_target": "KOR (Homo sapiens, UniProt P41145)", "sequence (P41145 whole entry)": "as the sequence (P41145 whole entry D138N) above, with N138D counted along it", "assay": "cell-based"}, "[7]": {"test_system": "C57BL/6J mice", "conditions": "mouse, in vivo"}, "[8]": {"test_system": "muscarinic receptor- based DREADDs (Gq, Gi and Gs DREADDs)", "assay": "Activity at muscarinic receptor-based DREADDs", "format": "cell-based"}, "[9]": {"test_system": "mice", "conditions": "mouse, in vivo", "remark": "listed apart in the source"}, "[10]": {"test_system": "VTA/SN neurons", "assay": "Miniature IPSC recording in VTA/SN neurons", "format": "cell-based", "conditions": "naive mice; 100 nM"}, "[11]": {"test_system": "SIM1-Cre mice, PVH^SIM1 neurons", "assay": "Feeding study in SIM1-cre mice", "format": "in vivo", "conditions": "wild type control mice injected with cre-dependent KORD virus; 10 mg/kg s.c."}}, "data": [{"compound": "COC(=O)[C@@H]1C[C@H](O)C(=O)[C@H]2[C@@]1(C)CC[C@H]1C(=O)O[C@H](c3ccoc3)C[C@]21C", "note": "[Salvinorin B, salvinorin B]", "values": [{"measurement": "Emax", "setting": "[1]", "value": 94, "unit": "%"}, {"measurement": "Emax (%)", "setting": "[1]", "value": 100, "unit": "%"}, {"measurement": "rotarod test effect (impairment of motor performance)", "setting": "[2]", "value": "did not alter performance relative to controls"}, {"measurement": "locomotor activity vs vehicle", "setting": "[3]", "value": "enhanced locomotor activity"}, {"measurement": "activity against a large number of CNS molecular targets", "setting": "[4]", "value": "failed to show any activity"}, {"measurement": "effect of E297A mutation on agonist potency", "setting": "[5]", "value": "no effect on SALB agonist potency"}, {"measurement": "Emax", "setting": "[6]", "value": 80, "unit": "%"}, {"measurement": "Emax (%)", "setting": "[6]", "value": 100, "unit": "%"}, {"measurement": "brain stimulation reward thresholds (ICSS)", "setting": "[7]", "value": "failed to significantly elevate thresholds"}, {"measurement": "activity at muscarinic receptor-based DREADDs", "setting": "[8]", "value": "inactive"}, {"measurement": "hot plate test effect (analgesia)", "setting": "[9]", "value": "did not alter performance relative to controls"}, {"measurement": "mIPSCs (frequency and amplitude)", "setting": "[10]", "value": "no effect"}, {"measurement": "feeding effect", "setting": "[11]", "value": "no feeding effects"}]}]}
